The source of these data is patent US9359371B2, “Bicyclic substituted pyrimidine compounds” (Xuanzhu Pharma Co., Ltd., priority 2012, dated 2016).

SMILES strings stand for the structures. Like-named read-outs stand apart in the source and are kept apart here.

One data set addresses PDE-11 (Homo sapiens (Human), UniProt Q9HCR9). Description: Caliper Mobility-Shift PDE-11 Assay. Format: biochemical. The following applies: Table 4; maximum final concentration 10 μM. How it is done: Experiment 4: Measurement of Pharmacological Activity on PDE-11 Enzyme In Vitro
Method: enzyme assay, Caliper Mobility-Shift PDE-11 Assay
The test compound was accurately weighed, dissolved in DMSO, mixed thoroughly and formulated into 10 mM. The above stock solution was diluted to a concentration of 0.5 mM with DMSO, and then was gradiently diluted by a dilution factor of 3.162, resulting in 11 concentrations in total.
To a 96-well plate, 20 μL of 10 μM FL-cGMP as the substrate was added; then 1 μL solution of the compound in DMSO or DMSO solution without compound was added; and then 29 μL of 0.28 ng/μL PDE-11 enzyme buffer (100 mM Hepes pH 7.5, 5 mM MgCl2, 0.002% Brij-35) was added. The maximum final concentration of the compound was 10 μM. The plate was incubated at 30° C. for 1 h, and 20 μL of 70 μM EDTA was then added to stop the reaction. 26 μL of solution of each well was transferred to a 384-well plate. The conversion was read on a EZ reader II. The Inhibition rate was calculated by the formula below, and used to calculate IC50 by Prism 5.0 Inhibition rate=[Conversion (ZPE)−Conversion (sample)]×100/[Conversion (ZPE)−Conversion (HPE)]
Note: HPE: control without enzyme; ZPE: control without compound

The next data set deals with PDE-5A enzyme (Homo sapiens (Human), UniProt O76074). Put plainly: Caliper Mobility-Shift PDE-5A Assay. Format: biochemical. Conditions: Table 1; Avanafil value is the control. How it is done:
Experiment 1: Measurement of Enzymatic Activity In Vitro
PDE-5A enzyme: humanized PDE-5 enzyme, SignalChem, Cat#93-31G-20.
Method: enzyme assay, Caliper Mobility-Shift PDE-5A Assay:
The test compound was accurately weighed, dissolved in DMSO, mixed thoroughly and formulated into 10 mM.
The maximum final concentration of the compound was 10 μM. The plate was incubated at 30° C. for 1 h, and 20 μL of 70 μM EDTA was then added to stop the reaction. 26 μL of solution of each well was transferred to a 384-well plate. The conversion was read on a EZ reader II. The inhibition rate was calculated by the formula below, and used to calculate IC50 by Prism 5.0 Inhibition rate=[Conversion (ZPE)−Conversion (sample)]×100/[Conversion (ZPE)−Conversion (HPE)]
Note: HPE: control without enzyme; ZPE: control without a test compound

Data set [1] addresses PDE-5 enzyme (human blood platelets) (Homo sapiens (Human), UniProt O76074). Put plainly: PDE-5 enzyme assay, [3H]cGMP. In kind it is biochemical. Conditions: Table 2; human blood platelet enzyme; read-out: IC50 on PDE-5.
Data set [2] in a line: Pharmacokinetics (PK) in SD rats. In kind it is in vivo. Conditions: rat; for AUC(0-inf) / Cmax / Tmax / half-life / bioavailability: SD, plasma; for bioavailability: read-out: F % (absolute bioavailability). How it is done:
Experiment 9: Assay of Pharmacokinetics (PK) of the Compounds of the Present Invention in SD Rats
Compound 1-54 of the present invention were prepared by the methods described in Example 1 to Example 54 of the present invention.
The control drug Avanafil, of which the structure was stated above, was purchased commercially.
Collection of the rat's blood: The animal was fixed. The tail was warmed with a water bath 10 min before the collection time. About 200 μL of whole blood was collected from the tail vein. The collected blood was collected into anticoagulant tubes containing heparin sodium. The blood samples were centrifuged at 4° C. by 8000 rpm for 6 min to give the plasma samples, which should be prepared within 30 min after the collection of blood. The plasma samples were stored in a freezer of −80° C. until test.
The result output by Analyst 1.5.1 of AB Company was used as the concentration of the tested sample (plasma sample). The mean value, standard deviation, variable coefficient and the like were calculated by Microsoft Excel (except for the result directly output by Analyst 1.5.1). Parameters of PK were calculated by Pharsight Phoenix 6.2 software. Formula for calculating oral bioavailability: F %=AUCinf−po*Doseiv/AUCinf−iv*Dosepo.

[3] abbreviates: po, intragastric administration, 2 mg/kg.
The mark [4] stands for this setting: po, intragastric administration, 1 mg/kg.

Chain of PDE-11 (Q9HCR9 whole entry): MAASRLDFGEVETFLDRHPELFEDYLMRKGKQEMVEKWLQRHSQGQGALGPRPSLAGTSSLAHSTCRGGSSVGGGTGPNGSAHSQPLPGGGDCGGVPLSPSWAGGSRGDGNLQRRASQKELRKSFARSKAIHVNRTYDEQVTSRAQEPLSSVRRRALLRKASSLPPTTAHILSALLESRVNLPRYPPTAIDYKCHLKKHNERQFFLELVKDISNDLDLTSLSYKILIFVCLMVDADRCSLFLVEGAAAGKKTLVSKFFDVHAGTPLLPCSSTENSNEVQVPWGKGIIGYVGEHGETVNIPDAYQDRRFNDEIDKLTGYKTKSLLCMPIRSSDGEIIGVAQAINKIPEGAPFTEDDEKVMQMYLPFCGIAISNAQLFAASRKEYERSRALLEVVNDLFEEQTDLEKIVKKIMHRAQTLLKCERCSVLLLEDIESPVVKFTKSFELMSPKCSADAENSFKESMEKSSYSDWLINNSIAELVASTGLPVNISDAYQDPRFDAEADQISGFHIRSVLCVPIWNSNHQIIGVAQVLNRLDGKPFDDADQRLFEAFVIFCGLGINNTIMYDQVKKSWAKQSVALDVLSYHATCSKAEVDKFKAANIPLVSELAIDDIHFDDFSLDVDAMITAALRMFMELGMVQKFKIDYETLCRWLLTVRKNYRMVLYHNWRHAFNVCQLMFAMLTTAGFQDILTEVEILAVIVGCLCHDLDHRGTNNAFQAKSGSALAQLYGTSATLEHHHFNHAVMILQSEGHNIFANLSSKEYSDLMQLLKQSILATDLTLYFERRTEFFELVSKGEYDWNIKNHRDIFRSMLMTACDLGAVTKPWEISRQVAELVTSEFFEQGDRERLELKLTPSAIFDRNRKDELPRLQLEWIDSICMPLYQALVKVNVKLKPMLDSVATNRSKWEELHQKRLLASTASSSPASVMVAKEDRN

Regarding `COc1ccc(CNc2nc(N3CC4CC4C3)ncc2C(=O)NCc2cnc(C)cn2)cc1Cl` (centres unmarked) [Compound 4, 2-(3-azabicyclo[3.1.0]hexan-3-yl)-4-((3-chloro-4-methoxybenzyl)amino)-N-((5-methylpyrazine-2-yl)methyl)pyrimidine-5-formamide], the IC50 (commonly the concentration that inhibits the measured activity by half) on PDE-11 is greater than 10000 nM; at PDE-5A enzyme it was 4.63 nM.
`COc1ccc(CNc2nc(N3CCC4(CCN(C)C4)C3)ncc2C(=O)NCc2ncccn2)cc1Cl` (centres unmarked) [Compound 18, 4-((3-chloro-4-methoxybenzyl)amino)-2-(7-methyl-2,7-diazaspiro[4.4]nonan-2-yl)-N-(pyrimidin-2-ylmethyl)pyrimidine-5-formamide]: the IC50 at PDE-11 is greater than 10000 nM.
On to `COc1ccc(CNc2nc(N3CC4CC4C3)ncc2C(=O)NCCN2CCOCC2)cc1Cl` (centres unmarked) [Compound 6, 2-(3-azabicyclo[3.1.0]hexan-3-yl)-4-((3-chloro-4-methoxybenzyl)amino)-N-(2-morpholinylethyl)pyrimidine-5-formamide], for which the IC50 on PDE-11 was greater than 10000 nM; at PDE-5A enzyme it was 4.25 nM.
As to `COc1ccc(CNc2nc(N3CC4CC4C3)ncc2C(=O)NCc2ncccn2)cc1Cl` (centres unmarked) [Compound 1, 2-(3-azabicyclo[3.1.0]hexan-3-yl)-4-((3-chloro-4-methoxybenzyl)amino)-N-(pyrimidin-2-ylmethyl)pyrimidine-5-formamide], the half-inhibitory concentration (IC50) in data set [1] was 6.04 nM; on PDE-11, greater than 10000 nM; on PDE-5A enzyme, 6.04 nM.
For the molecule `COc1ccc(CNc2nc(N3CC4CC4C3)ncc2C(=O)N[C@H]2CCCCNC2=O)cc1Cl` (some centres unmarked) [Compound 8, 2-(3-azabicyclo[3.1.0]hexan-3-yl)-4-((3-chloro-4-methoxybenzyl)amino)-N-((s)-caprolactam-3-yl)pyrimidine-5-formamide], the 50% inhibitory concentration (IC50) on PDE-11 was greater than 10000 nM; on PDE-5A enzyme, 13.2 nM.
With `COc1ccc(CNc2nc(N3CCC4(CC4)C3)ncc2C(=O)NCc2ccccn2)cc1Cl` [Compound 40, 4-((3-chloro-4-methoxybenzyl)amino)-N-(pyridin-2-ylmethyl)-2-(5-azaspiro[2.4]heptan-5-yl)pyrimidine-5-formamide], the concentration for half-maximal inhibition (IC50) at PDE-5A enzyme is 11.9 nM. For the same molecule, in data set [2] (setting [3]), the area under the curve AUC(0-inf) – broadly, the area under the concentration-time curve extrapolated to infinity – is 57 ng·h/mL; the peak concentration (Cmax) (commonly the maximum level reached in the sampled fluid or tissue) was found to be 13.9 ng/mL; the time of peak concentration (Tmax) (usually the time from dosing to the highest level) is 0.5 h; the half-life (in general, the time needed for the level to fall by half in the phase considered) is 3.58 h. For the same molecule, the bioavailability (in general, the share of a dose that reaches the circulation, judged against a reference dose that is usually intravenous) in data set [2] (setting [3]) worked out at 9.5%. Moreover, in data set [2] (intravenous injection, 1 mg/kg), the area under the curve AUC(0-inf) was determined as 205 ng·h/mL, the half-life was 2.73 h, the Cl_obs is 81.3 mL/min/kg and the Vss_obs worked out at 16.40 L/kg.
For `COc1ccc(CNc2nc(N3CC4CC4C3)ncc2C(=O)NC2CCCCCC2)cc1Cl` (centres unmarked) [Compound 9, 2-(3-azabicyclo[3.1.0]hexan-3-yl)-4-((3-chloro-4-methoxybenzyl)amino)-N-cycloheptanylpyrimidine-5-formamide], the results for the half-inhibitory concentration (IC50) on PDE-11 and on PDE-5A enzyme were greater than 10000 nM and 23.2 nM, respectively.
Take `COc1ccc(CNc2nc(N3CC4CC4C3CO)ncc2C(=O)NCc2ccccc2)cc1Cl` (centres unmarked) [Compound 32, N-benzyl-4-((3-chloro-4-methoxybenzyl)amino)-2-(2-(hydroxymethyl)-3-azabicyclo[3.1.0]hexan-3-yl)pyrimidine-5-formamide]: at PDE-5A enzyme, the half-inhibitory concentration (IC50) amounted to 4.63 nM. In addition, in data set [2] (setting [3]), the total exposure AUC(0-inf) came to 24 ng·h/mL, the concentration peaked (Cmax) at 6.5 ng/mL, the Tmax was found to be 0.5 h and the half-life was 2.26 h. The bioavailability in data set [2] (setting [3]) is 3.5%. In data set [2] (intravenous injection, 1 mg/kg), this molecule gave an AUC(0-inf) of 212 ng·h/mL, a half-life of 1.68 h, a Cl_obs of 80.2 mL/min/kg and a Vss_obs of 12.05 L/kg.
With `COc1ccc(CNc2nc(N3CCC4(CC4)C3)ncc2C(=O)N[C@H]2CC[C@H](O)CC2)cc1Cl` (stereo in doubt) [Compound 43, 4-((3-chloro-4-methoxybenzyl)amino)-N-(trans-4-hydroxycyclohexyl)-2-(5-azaspiro[2.4]heptan-5-yl)pyrimidine-5-formamide], the half-maximal inhibitory concentration (IC50) at PDE-5A enzyme is 15.4 nM. Besides, in data set [2] (setting [3]), the half-life is 3.31 h and the bioavailability was 18%. In data set [2] (intravenous injection, 1 mg/kg), this molecule gave a half-life of 1.3 h, a Cl_obs of 53.8 mL/min/kg and a Vss_obs of 5.18 L/kg.
Turning to `COc1ccc(CNc2nc(N3CCC4(CC4)C3)ncc2C(=O)NCCN2CCNCC2)cc1Cl` [Compound 42, 4-((3-chloro-4-methoxybenzyl)amino)-N-(2-(piperazin-1-yl)ethyl)-2-(5-azaspiro[2.4]heptan-5-yl)pyrimidine-5-formamide], the concentration for half-maximal inhibition (IC50) on PDE-11 is greater than 10000 nM.
Same read-out and setting: the figure for `COc1ccc(CNc2nc(N3CCC4(CC4)C3)ncc2C(=O)NCC2CCC(O)CC2)cc1Cl` (centres unmarked) [Compound 47, 4-((3-chloro-4-methoxybenzyl)amino)-N-(4-hydroxycyclohexyl)methyl-2-(5-azaspiro[2.4]heptan-5-yl)pyrimidine-5-formamide] is greater than 10000 nM.
As to `COc1ccc(CNc2nc(N3CCC4(CCC4)CC3)ncc2C(=O)NCc2ncccn2)cc1Cl` [Compound 14, 4-((3-chloro-4-methoxybenzyl)amino)-N-(pyrimidin-2-ylmethyl)-2-(7-azaspiro[3.5]nonan-7-yl)pyrimidine-5-formamide], the IC50 at PDE-11 is greater than 10000 nM. Also, in data set [2] (setting [4]), the area under the curve AUC(0-inf) was determined as 36 ng·h/mL, the highest concentration (Cmax) turned out to be 5.2 ng/mL, the half-life was 2.85 h and the bioavailability was found to be 15%. Besides, in data set [2] (intravenous injection, 1 mg/kg), the area under the curve AUC(0-inf) was found to be 237 ng·h/mL, the half-life is 1.47 h, the Cl_obs amounted to 71 mL/min/kg and the Vss_obs was found to be 8.73 L/kg.
For `COc1ccc(CNc2nc(N3CC4CC4C3)ncc2C(=O)NCc2ccc(F)cc2)cc1Cl` (centres unmarked) [Compound 5, 2-(3-azabicyclo[3.1.0]hexan-3-yl)-4-((3-chloro-4-methoxybenzyl)amino)-N-(4-fluorobenzyl)pyrimidine-5-formamide], the concentration for half-maximal inhibition (IC50) at PDE-11 was greater than 10000 nM; at PDE-5A enzyme, 17.4 nM.
Take `COc1ccc(CNc2nc(N3CCC4(CC4)C3)ncc2C(=O)N[C@H]2CC[C@H](N)CC2)cc1Cl` [Compound 44, N-(trans-4-aminocyclohexyl)-4-(3-chloro-4-methoxybenzylamino)-2-(5-azaspiro[2.4]heptan-5-yl)pyrimidine-5-formamide]: at PDE-11, the IC50 is greater than 10000 nM.
Same read-out and setting: the same measure for `COc1ccc(CNc2nc(N3CC4CC4C3)ncc2C(=O)NCC2CCNCC2)cc1Cl` (centres unmarked) [Compound 7, 2-(3-azabicyclo[3.1.0]hexan-3-yl)-4-((3-chloro-4-methoxybenzyl)amino)-N-(piperdin-4-ylmethyl)pyrimidine-5-formamide]: greater than 10000 nM.
